Assay results: ChEMBL document CHEMBL2021894, “The Discovery of VX-745: A Novel and Selective p38α Kinase Inhibitor” (ACS Med Chem Lett, 2011)
Active and inactive are the calls of the source. The rule behind the calls is not given here.

Assays:
[1] = AUC in Sprague-Dawley rat at 4.8 mg/kg, iv; format: ADME, organism-based; set-up: dose 4.8 mg/kg, route intravenous; details: plasma
[2] = target: Angiopoietin-1 receptor (Homo sapiens) (UniProt Q02763); details: 2 uM
Description: Inhibition of Tie2 at 2 uM

[3] = system: Mus musculus; assay: Antiarthritic activity in complete Freund's adjuvant-immunized DBA/1J mouse assessed as inhibition of type 2 collagen-induced paw inflammation at […], po bid measured on day 20; format: functional; details: 480 h, dose 2.5 mg/kg
[4] = target: Tyrosine-protein kinase Fyn (Homo sapiens) (UniProt P06241); assay: Inhibition of Fyn at 2 uM
[5] = Clearance in Sprague-Dawley rat at 4.8 mg/kg, iv; format: ADME, organism-based; set-up: dose 4.8 mg/kg, route intravenous; details: in vivo
[6] = Oral bioavailability in BALB/c mouse at 40 mg/kg; format: ADME, organism-based; details: in vivo
[7] = target: Tyrosine-protein kinase Blk (Homo sapiens) (UniProt P51451); details: 2 uM
Description: Inhibition of Blk at 2 uM

[8] = system: Canis familiaris; assay: Oral bioavailability in beagle dog at 33 mg/kg; format: ADME, organism-based, Canis lupus familiaris; details: in vivo
[9] = Half life in Sprague-Dawley rat at 4.8 mg/kg, iv; format: ADME, organism-based; set-up: dose 4.8 mg/kg, route intravenous; details: in vivo
[10] = target: Mitogen-activated protein kinase 1 (Homo sapiens) (UniProt P28482); assay: Inhibition of ERK2 using ATGPLSPGPFGRR as substrate at 100 uM by spectrophotometric enzyme-coupled assay
[11] = target: Mitogen-activated protein kinase 11 (Homo sapiens) (UniProt Q15759); details: 100 uM
[12] = system: Canis familiaris; assay: AUC in beagle dog at 33 mg/kg, po; format: ADME, organism-based, Canis lupus familiaris, Plasma; set-up: dose 33 mg/kg, route oral; details: in vivo
[13] = target: RAF proto-oncogene serine/threonine-protein kinase (Homo sapiens) (UniProt P04049); details: 2 uM
Description: Inhibition of RAFc at 2 uM

[14] = Inhibition of Gsk3 by filter binding assay
[15] = Volume of distribution at steady state in BALB/c mouse at 2 mg/kg, iv; format: ADME, organism-based; set-up: dose 2 mg/kg, route intravenous; details: in vivo, read-out: Vdss
[16] = system: Mus musculus; assay: Antiarthritic activity in complete Freund's adjuvant-immunized DBA/1J mouse assessed as inhibition of type 2 collagen-induced paw inflammation at 10 mg/kg, po bid measured on day 20; format: functional; details: 480 h
[17] = target: Mitogen-activated protein kinase 3 (Homo sapiens) (UniProt P27361); details: 2 uM
Description: Inhibition of ERK1 at 2 uM

[18] = Oral bioavailability in Sprague-Dawley rat at 43 mg/kg; format: ADME, organism-based; details: in vivo
[19] = Volume of distribution at steady state in Sprague-Dawley rat at 4.8 mg/kg, iv; format: ADME, organism-based; set-up: dose 4.8 mg/kg, route intravenous; details: in vivo, read-out: Vdss
[20] = target: Inhibitor of nuclear factor kappa-B kinase subunit beta (Homo sapiens) (UniProt O14920); details: 2 uM
Description: Inhibition of IKKb at 2 uM

[21] = target: Ephrin type-B receptor 4 (Homo sapiens) (UniProt P54760); details: 2 uM
Description: Inhibition of EphB4 at 2 uM

[22] = Plasma protein binding in rat; format: ADME, cell-free; details: read-out: PPB (converted)
[23] = Cmax in BALB/c mouse at 40 mg/kg, po; format: ADME, organism-based; set-up: dose 40 mg/kg, route oral; details: in vivo
[24] = Clearance in beagle dog at 13.8 mg/kg, iv; format: ADME, organism-based, Canis lupus familiaris; set-up: dose 13.8 mg/kg, route intravenous; details: in vivo
[25] = target: Rho-associated protein kinase 2 (Homo sapiens) (UniProt O75116); assay: Inhibition of ROCK2 at 2 uM
[26] = Induction of human cytochrome P450; format: ADME
[27] = target: Ribosomal protein S6 kinase alpha-2 (Homo sapiens) (UniProt Q15349); details: 2 uM
Description: Inhibition of Rsk3 at 2 uM

[28] = target: Cytochrome P450 2D6 (Homo sapiens, UniProt P10635); assay: Inhibition of human CYP2D6; format: ADME
[29] = target: Protein kinase C iota type (Homo sapiens) (UniProt P41743); details: 2 uM
Description: Inhibition of PKCiota at 2 uM

[30] = Half life in BALB/c mouse at 40 mg/kg, po; format: ADME, organism-based; set-up: dose 40 mg/kg, route oral; details: in vivo

Sequence of Cytochrome P450 2D6 (P10635 whole entry): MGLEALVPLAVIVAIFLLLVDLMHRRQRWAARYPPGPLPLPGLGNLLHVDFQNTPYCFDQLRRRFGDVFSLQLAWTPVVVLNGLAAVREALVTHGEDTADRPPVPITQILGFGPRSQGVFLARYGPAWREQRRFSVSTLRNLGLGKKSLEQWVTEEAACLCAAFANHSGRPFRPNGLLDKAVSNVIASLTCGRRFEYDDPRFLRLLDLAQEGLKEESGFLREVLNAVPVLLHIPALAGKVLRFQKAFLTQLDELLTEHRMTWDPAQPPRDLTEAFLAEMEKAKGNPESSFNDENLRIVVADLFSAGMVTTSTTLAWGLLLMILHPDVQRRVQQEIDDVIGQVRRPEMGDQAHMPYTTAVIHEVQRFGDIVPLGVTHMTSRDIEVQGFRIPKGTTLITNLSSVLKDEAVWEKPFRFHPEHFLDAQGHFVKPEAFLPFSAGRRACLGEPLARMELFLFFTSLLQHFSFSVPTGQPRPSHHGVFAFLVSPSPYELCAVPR
Sequence of Ephrin type-B receptor 4 (Homo sapiens) (P54760 whole entry): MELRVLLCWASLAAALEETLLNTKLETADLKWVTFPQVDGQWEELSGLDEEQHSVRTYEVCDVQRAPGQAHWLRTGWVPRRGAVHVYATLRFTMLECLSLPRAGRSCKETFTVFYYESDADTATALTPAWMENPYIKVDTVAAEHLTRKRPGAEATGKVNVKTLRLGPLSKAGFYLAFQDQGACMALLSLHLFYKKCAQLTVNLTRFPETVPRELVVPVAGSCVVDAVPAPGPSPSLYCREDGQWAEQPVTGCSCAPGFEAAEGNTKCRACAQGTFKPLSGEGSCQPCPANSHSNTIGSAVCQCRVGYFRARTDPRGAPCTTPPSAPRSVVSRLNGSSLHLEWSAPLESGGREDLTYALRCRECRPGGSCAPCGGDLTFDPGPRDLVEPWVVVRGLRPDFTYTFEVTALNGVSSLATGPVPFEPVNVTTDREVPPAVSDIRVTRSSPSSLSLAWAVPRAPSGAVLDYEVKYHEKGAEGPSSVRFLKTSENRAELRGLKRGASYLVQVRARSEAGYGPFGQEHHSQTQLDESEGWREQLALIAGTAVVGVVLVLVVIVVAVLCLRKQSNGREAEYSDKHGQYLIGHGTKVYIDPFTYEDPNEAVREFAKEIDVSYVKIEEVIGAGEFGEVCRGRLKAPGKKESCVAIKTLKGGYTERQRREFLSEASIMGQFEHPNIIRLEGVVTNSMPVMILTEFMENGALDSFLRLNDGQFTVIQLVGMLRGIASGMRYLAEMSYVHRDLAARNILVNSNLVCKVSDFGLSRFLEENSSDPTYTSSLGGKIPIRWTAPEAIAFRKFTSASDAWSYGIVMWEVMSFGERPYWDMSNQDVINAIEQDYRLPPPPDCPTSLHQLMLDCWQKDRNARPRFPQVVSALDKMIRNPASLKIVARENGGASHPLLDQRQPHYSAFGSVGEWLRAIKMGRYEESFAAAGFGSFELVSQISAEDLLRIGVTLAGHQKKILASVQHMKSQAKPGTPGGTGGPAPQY
Sequence of RAF proto-oncogene serine/threonine-protein kinase (Homo sapiens) (P04049 whole entry): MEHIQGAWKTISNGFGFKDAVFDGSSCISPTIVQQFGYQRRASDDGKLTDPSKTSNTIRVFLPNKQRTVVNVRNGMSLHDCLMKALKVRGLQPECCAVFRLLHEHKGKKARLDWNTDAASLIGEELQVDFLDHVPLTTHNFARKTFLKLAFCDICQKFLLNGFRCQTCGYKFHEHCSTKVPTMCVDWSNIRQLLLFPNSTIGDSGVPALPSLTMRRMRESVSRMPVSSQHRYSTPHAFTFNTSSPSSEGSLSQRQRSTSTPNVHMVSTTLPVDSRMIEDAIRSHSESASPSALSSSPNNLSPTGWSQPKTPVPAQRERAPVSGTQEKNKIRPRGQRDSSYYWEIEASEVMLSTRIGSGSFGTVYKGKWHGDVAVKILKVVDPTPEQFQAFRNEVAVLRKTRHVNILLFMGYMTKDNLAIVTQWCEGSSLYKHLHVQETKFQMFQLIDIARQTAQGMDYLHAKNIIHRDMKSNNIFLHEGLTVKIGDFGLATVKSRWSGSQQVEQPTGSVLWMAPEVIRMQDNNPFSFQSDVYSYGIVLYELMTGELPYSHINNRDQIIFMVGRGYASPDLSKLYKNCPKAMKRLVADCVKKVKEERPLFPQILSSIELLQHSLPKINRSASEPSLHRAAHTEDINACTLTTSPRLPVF
Sequence of Inhibitor of nuclear factor kappa-B kinase subunit beta (Homo sapiens) (O14920 whole entry): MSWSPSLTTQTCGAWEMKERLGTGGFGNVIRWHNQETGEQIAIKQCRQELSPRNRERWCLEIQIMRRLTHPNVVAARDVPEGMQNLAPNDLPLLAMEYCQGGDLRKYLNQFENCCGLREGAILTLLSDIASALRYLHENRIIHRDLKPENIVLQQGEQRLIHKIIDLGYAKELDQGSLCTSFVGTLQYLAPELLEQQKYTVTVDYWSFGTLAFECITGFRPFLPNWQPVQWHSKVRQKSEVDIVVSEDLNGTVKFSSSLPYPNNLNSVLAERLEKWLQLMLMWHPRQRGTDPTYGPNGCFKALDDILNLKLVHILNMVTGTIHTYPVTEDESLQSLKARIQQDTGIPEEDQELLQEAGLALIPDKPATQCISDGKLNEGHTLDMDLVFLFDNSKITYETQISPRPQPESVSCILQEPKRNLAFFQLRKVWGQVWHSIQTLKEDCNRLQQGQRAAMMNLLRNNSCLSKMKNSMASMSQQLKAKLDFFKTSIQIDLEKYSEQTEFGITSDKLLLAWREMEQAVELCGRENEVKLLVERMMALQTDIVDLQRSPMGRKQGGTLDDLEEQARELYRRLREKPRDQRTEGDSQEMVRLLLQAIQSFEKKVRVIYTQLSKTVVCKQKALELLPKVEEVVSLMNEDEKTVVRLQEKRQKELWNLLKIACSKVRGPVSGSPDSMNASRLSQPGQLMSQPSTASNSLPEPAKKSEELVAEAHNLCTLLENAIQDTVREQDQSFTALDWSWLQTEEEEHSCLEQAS
Sequence of Ribosomal protein S6 kinase alpha-2 (Homo sapiens) (Q15349 whole entry): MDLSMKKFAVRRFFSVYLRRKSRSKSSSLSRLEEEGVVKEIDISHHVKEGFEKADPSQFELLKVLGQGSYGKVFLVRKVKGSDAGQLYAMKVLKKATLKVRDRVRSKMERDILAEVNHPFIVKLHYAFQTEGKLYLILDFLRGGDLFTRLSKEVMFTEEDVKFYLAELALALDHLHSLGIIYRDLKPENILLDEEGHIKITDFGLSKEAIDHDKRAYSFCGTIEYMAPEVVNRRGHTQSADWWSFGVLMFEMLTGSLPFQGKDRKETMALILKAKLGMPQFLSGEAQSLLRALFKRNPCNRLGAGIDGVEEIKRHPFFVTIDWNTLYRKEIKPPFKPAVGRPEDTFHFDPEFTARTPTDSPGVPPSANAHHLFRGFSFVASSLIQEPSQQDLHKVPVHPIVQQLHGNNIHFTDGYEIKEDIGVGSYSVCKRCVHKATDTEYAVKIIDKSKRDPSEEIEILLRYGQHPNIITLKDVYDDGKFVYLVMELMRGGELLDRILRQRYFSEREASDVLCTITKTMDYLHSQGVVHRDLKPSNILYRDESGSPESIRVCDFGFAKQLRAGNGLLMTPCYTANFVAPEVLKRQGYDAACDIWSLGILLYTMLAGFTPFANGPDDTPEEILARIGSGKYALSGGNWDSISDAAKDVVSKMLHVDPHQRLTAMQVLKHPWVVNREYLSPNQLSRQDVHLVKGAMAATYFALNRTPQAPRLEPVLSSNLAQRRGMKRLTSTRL
Sequence of Angiopoietin-1 receptor (Homo sapiens) (Q02763 whole entry): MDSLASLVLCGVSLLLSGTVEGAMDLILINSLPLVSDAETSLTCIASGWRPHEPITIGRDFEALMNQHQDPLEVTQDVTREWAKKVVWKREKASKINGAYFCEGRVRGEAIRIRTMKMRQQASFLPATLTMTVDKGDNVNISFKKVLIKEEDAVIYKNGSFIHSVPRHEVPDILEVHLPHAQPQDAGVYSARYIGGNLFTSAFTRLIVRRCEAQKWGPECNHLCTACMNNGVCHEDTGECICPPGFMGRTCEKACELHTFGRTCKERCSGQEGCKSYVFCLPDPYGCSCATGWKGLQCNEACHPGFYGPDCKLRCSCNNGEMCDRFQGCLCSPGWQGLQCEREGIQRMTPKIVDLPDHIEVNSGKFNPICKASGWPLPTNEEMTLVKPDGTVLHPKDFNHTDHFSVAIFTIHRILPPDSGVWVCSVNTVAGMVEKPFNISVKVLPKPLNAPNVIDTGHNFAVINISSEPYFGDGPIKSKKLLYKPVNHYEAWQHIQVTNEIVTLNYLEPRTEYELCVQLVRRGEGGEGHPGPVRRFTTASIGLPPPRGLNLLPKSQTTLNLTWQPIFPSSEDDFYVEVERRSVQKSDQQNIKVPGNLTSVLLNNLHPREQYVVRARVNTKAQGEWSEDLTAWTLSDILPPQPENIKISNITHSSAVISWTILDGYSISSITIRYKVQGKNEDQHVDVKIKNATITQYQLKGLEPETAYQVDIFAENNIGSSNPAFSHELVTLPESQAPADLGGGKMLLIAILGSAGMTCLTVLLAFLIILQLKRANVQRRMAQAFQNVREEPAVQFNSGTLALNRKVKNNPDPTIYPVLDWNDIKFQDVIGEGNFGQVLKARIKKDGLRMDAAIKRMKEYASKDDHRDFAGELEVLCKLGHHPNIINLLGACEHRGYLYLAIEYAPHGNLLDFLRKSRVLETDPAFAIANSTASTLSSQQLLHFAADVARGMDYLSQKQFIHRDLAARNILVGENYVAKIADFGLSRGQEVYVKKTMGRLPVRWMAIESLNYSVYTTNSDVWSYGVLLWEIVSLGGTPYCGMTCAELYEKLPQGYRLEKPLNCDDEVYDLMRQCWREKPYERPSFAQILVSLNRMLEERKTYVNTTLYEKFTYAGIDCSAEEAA

O=c1ncn2nc(Sc3ccc(F)cc3F)ccc2c1-c1c(Cl)cccc1Cl [NEFLAMAPIMOD]
AUC [1]: 1260 ng·h/mL
inhibition [2]: 0%
inhibition in vivo at […] [3]: 27%
inhibition [4]: 6%
clearance [5]: 63 mL/min/kg
bioavailability [6]: 87%
inhibition [7]: 0%
F [8]: 69%
half-life [9]: 1.9 h
inhibition [10]: inactive
inhibition [11]: inactive
AUC [12]: 4340 ng·h/mL
inhibition [13]: 0%
IC50 [14]: > 5 µM
Vd [15]: 2.2 L/kg
inhibition in vivo at 10 mg/kg [16]: 44%
inhibition [17]: 0%
bioavailability [18]: 56%
Vd [19]: 3.9 L/kg
inhibition [20]: 0%
inhibition [21]: 16%
fraction unbound [22]: 0.02
Cmax [23]: 7850 ng/mL
clearance [24]: 39 mL/min/kg
inhibition [25]: 8%
Activity [26]: Not Active
inhibition [27]: 0%
IC50 [28]: > 40 µM
inhibition [29]: 0%
half-life [30]: 4.5 h
